For data set [1], the system named is female BALB/c mice. The experiment in a line: Toxicity, multiple administrations for 14 days in mice. The data set is classed as in vivo. Set-up: Changes in body weight of the mice in the toxicity test (group mean) / Changes in body weight of the mice in the toxicity test: unit not given here. As to the method:
• Part I: Single administration. A total of 6 mice were used. They were randomly divided into 2 groups: the vehicle control and GEN1-284s (1000 mg/kg), dosed once by oral gavage and observed for 6 days, and changes in body weight and activities were recorded. • Part II: Multiple administrations. This experiment used a total of 6 mice. They were divided into two groups of 3: a GEN1-284s-1000 mg/kg group and a GEN1-284s-300 mg/kg group, and were intragastrically given GEN1-284s for 14 consecutive days at 200 μL each. The state and survival of the mice were observed every day, and their body weights were recorded. Two mice died 2 h after GEN1-284s-1000 mg/kg administration. The dose was changed to 600 mg/kg, and the experiment was continued.
This experiment used a total of 6 mice. They were divided into two groups of 3: a GEN1-284s-1000 mg/kg group and a GEN1-284s-300 mg/kg group, and were intragastrically given GEN1-284s for 14 consecutive days at 200 μL each. The state and survival of the mice were observed every day, and their body weights were recorded. Two mice died 2 h after GEN1-284s-1000 mg/kg administration. The dose was changed to 600 mg/kg, and the experiment was continued.
Each mouse was intragastrically administered GEN1-284s for 14 consecutive days in a volume of 200 μL/20 g. The state and survival of the mice were observed every day, and their body weights were recorded. Two mice died 2 h after GEN1-284s-1000 mg/kg administration. The dose was changed to 600 mg/kg, and the experiment was continued.
Changes in body weight and survival of the mice were observed during 6 days after the single administration, and changes in body weight and the survival of the mice were observed during 14 consecutive days of high-dose GEN1-284s administration.

The test system of data set [2] is STAT5 Y694 phosphorylation. The data set can be described thus: HTRF experiment: STAT5 Y694 phosphorylation in Hela cells. The data set is classed as cell-based, Human. The note with it: for Inhibition rate @10 μM: 10 μM compound, 2 h pretreatment, interferon stimulation 30 min. The procedure: A multifunctional microplate reader (TECAN; […] F PLEX); 96-well cell culture plates (Bioyong), HTRF 384-well low volume plates (Cisbio; Cat #66PL384025); Human interferon 0 (IFN-0) (GenScript; Cat #P01574), STAT5 phospho-Y694 kits (Cisbio; Cat #64AT5PEG).
Hela cells (American Type Culture Collection (ATCC), CCL-2) were cultured in a 96-well plate with DMEM containing 5% fetal bovine serum at a density of 3×10^4 cells/well. The cells were incubated overnight in a 37° C., 5% carbon dioxide humidified incubator. The next day, the original DMEM in the 96-well plate was blotted, and equal volumes of medium containing different concentrations of compounds (stock solutions of compounds prepared with dimethyl sulfoxide were diluted to desired concentrations in medium) were added for 2 h of pretreatment. The plate was left to stand in a 37° C. incubator. Human interferon 0 was then added to a final concentration of 10 nM for stimulation. The plate was gently shaken so the contents were well mixed, and the plate was then left to stand in a 37° C. incubator for 30 min.
The medium was removed, and the plate was washed once with an appropriate volume of PBS and then blotted dry. Then 1×lysis buffer was added at 40 μL/well, and the plate was left to stand at room temperature for 30 min (preparation of 1 mL of 1× lysis buffer: mixing well 740 μL of ddH2O with 250 μL of 4× lysis buffer and […]). After 30 min, the cells were repeatedly pipetted until the lysis buffer was not viscous (bubbles were avoided) so that sufficient lysis was achieved.
In an HTRF 384-well low volume plate, 4 μL of an antibody premix (containing two antibodies: Cryptate and d2: the two antibodies were each 20-fold diluted with detection buffer and were then mixed in equal volume to form the antibody premix) and 16 μL of the cell lysate were added to each well. The plate was sealed with a sealing membrane and then incubated overnight at room temperature in a dark place.
After the overnight incubation, signals at 665 nm and 620 nm were detected separately on a multifunctional microplate reader. The calculation formula for the STAT5 Y694 phosphorylation assay is: Ratio=[(signal 665 nm)/(signal 620 nm)]×10^4. A dimethyl sulfoxide-only treatment group was set as a negative control (RatioNegative), and an interferon 0 stimulation group without compound addition was set as a positive control (RatioPositive). The inhibition rates of different samples against STAT5 Y694 phosphorylation were normalized: inhibition rate=[1−(RatioExperiment−RatioNegative)/(RatioPositive−RatioNegative)]×100.
For orientation: In TR-FRET formats the signal depends on donor and acceptor labels being close together.

For the molecule `O=C(Cc1ccc2ncccc2c1)N1CCC(n2c(=O)n(COP(=O)([O-])[O-])c3cccc(C(F)(F)F)c32)CC1.[Na+].[Na+]` [Compound 284s], the “Changes in body weight of the mice in the toxicity test (group mean)” value (“Changes in body weight … (group mean)” below) in data set [1] (300 mg/kg P.O daily, Day 1) amounted to 16.97; in data set [1] (300 mg/kg P.O daily, Day 2) it was 16.93; in data set [1] (300 mg/kg P.O daily, Day 3), 16.87; in data set [1] (300 mg/kg P.O daily, Day 4), 17.17; in data set [1] (300 mg/kg P.O daily, Day 5), 17.17; in data set [1] (300 mg/kg P.O daily, Day 6) it was 17.23. For the same molecule, the “Changes in body weight … (group mean)” value in data set [1] (300 mg/kg P.O daily, Day 8) is listed as 17.47; in data set [1] (300 mg/kg P.O daily, Day 9) it was 17.17; in data set [1] (300 mg/kg P.O daily, Day 10) it was 17.1; in data set [1] (300 mg/kg P.O daily, Day 11), 17.3; in data set [1] (300 mg/kg P.O daily, Day 12) it was 17.23; in data set [1] (300 mg/kg P.O daily, Day 13), 17.47. Also, the “Changes in body weight … (group mean)” value in data set [1] (300 mg/kg P.O daily, Day 14) is 17.47; in data set [1] (600 mg/kg group (1000 mg/kg, changed to 600 mg/kg on day 2) P.O daily, Day 1), 17.37. For the same molecule, the “Changes in body weight of the mice in the toxicity test” value in data set [1] (600 mg/kg group (1000 mg/kg, changed to 600 mg/kg on day 2) P.O daily, Day 2) stood at 16.9; in data set [1] (600 mg/kg group (1000 mg/kg, changed to 600 mg/kg on day 2) P.O daily, Day 3) it was 17.3; in data set [1] (600 mg/kg group (1000 mg/kg, changed to 600 mg/kg on day 2) P.O daily, Day 4), 17.3.
Regarding `O=C(Cc1ccc2[nH]ccc2c1)N1CCC(n2c(=O)[nH]c3ccccc32)CC1` [GEN1-077, 3-[1-[2-(1H-Indol-5-yl)acetyl]-4-piperidinyl]-1H-benzimidazol-2-one], the “Inhibition rate @10 μM” value in data set [2] turned out to be 34.25%.
Same read-out and setting: the value for `CN(C)c1ccc(CC(=O)N2CCC(n3c(=O)[nH]c4cccc(C(F)(F)F)c43)CC2)cc1` [GEN1-118, 1-(1-(2-(4-(Dimethylamino)phenyl)acetyl)piperidin-4-yl)-7-(trifluoromethyl)-1,3-dihydro-2H-benzo[d]imidazol-2-one] was 27.57%; that for `O=C(Cc1ccc2nccnc2c1)N1CCC(n2c(=O)[nH]c3cccc(C(F)(F)F)c32)CC1` [GEN1-140, 1-(1-(2-(Quinoxalin-6-yl)acetyl)piperidin-4-yl)-7-(trifluoromethyl)-1,3-dihydro-2H-benzo[d]imidazol-2-one] was 53.79%.
The same measure, in the same setting: the value for `O=C(Cc1c[nH]c2ccccc12)N1CCC(n2c(=O)[nH]c3cccc(C(F)(F)F)c32)CC1` [GEN1-169, reference compound] was 13.47%.
For orientation: IC50 means the concentration needed to halve the response being measured. For the molecule `O=C(Cc1ccc2ncccc2c1)N1CCC(n2c(=O)n(COP(=O)(O)O)c3cccc(C(F)(F)F)c32)CC1` [GEN1-284, (2-Oxo-3-(1-(2-(quinolin-6-yl)acetyl)piperidin-4-yl)-4-(trifluoromethyl)-2,3-dihydro-1H-benzo[d]imidazol-1-yl)methyl dihydrogen phosphate], in data set [2], half-maximal inhibition (IC50) was put at 3.9 µM and the “Inhibition rate @10 μM” value came to 80.21%.
Consider `O=C(Cc1ccc2sccc2c1)N1CCC(n2c(=O)[nH]c3cccc(C(F)(F)F)c32)CC1` [GEN1-298, 1-(1-(2-(Benzo[b]thiophen-5-yl)acetyl)piperidin-4-yl)-7-(trifluoromethyl)-1,3-dihydro-2H-benzo[d]imidazol-2-one], for which the “Inhibition rate @10 μM” value in data set [2] was determined as 51.98%.
Take `Cc1ccc2cc(CC(=O)N3CCC(n4c(=O)[nH]c5cccc(C(F)(F)F)c54)CC3)ccc2n1` [GEN1-300]: in data set [2], inhibition was half-maximal at 7.6 µM (IC50) and the “Inhibition rate @10 μM” value is 72.83%.
With `O=C(Cc1ccc2nccc(Cl)c2c1)N1CCC(n2c(=O)[nH]c3cccc(C(F)(F)F)c32)CC1` [GEN1-301, 1-(1-(2-(4-Chloroquinolin-6-yl)acetyl)piperidin-4-yl)-7-(trifluoromethyl)-1,3-dihydro-2H-benzo[d]imidazol-2-one], in data set [2], inhibition was half-maximal at 8.8 µM (IC50) and the “Inhibition rate @10 μM” value is on record as 80.70%.
As to `O=C(Cc1ccc2nc(Cl)ccc2c1)N1CCC(n2c(=O)[nH]c3cccc(C(F)(F)F)c32)CC1` [GEN1-302, 1-(1-(2-(2-Chloroquinolin-6-yl)acetyl)piperidin-4-yl)-7-(trifluoromethyl)-1,3-dihydro-2H-benzo[d]imidazol-2-one], in data set [2], the IC50 was 7 µM and the “Inhibition rate @10 μM” value is reported as 80.37%.
`Cc1cc(CC(=O)N2CCC(n3c(=O)[nH]c4cccc(C(F)(F)F)c43)CC2)cc2cccnc12` [GEN1-303, 1-(1-(2-(8-Methylquinolin-6-yl)acetyl)piperidin-4-yl)-7-(trifluoromethyl)-1,3-dihydro-2H-benzo[d]imidazol-2-one]: in data set [2], inhibition was half-maximal at 5.5 µM (IC50) and the “Inhibition rate @10 μM” value is 91.91%.
For the molecule `N#Cc1ccnc2ccc(CC(=O)N3CCC(n4c(=O)[nH]c5cccc(C(F)(F)F)c54)CC3)cc12` [GEN1-304, 6-(2-Oxo-2-(4-(2-oxo-7-(trifluoromethyl)-2,3-dihydro-1H-benzo[d]imidazol-1-yl)piperidin-1-yl)ethyl)quinoline-4-carbonitrile], in data set [2], the “Inhibition rate @10 μM” value is given as 40.76%.
Consider `COc1ccc2cc(CC(=O)N3CCC(n4c(=O)[nH]c5cccc(C(F)(F)F)c54)CC3)ccc2n1` [GEN1-305], for which, in data set [2], the “Inhibition rate @10 μM” value is given as 63.05%.
The same measure, in the same setting: the value for `O=C(Cc1ccc2ncccc2c1Cl)N1CCC(n2c(=O)[nH]c3cccc(C(F)(F)F)c32)CC1` [GEN1-306, 1-(1-(2-(5-Chloroquinolin-6-yl)acetyl)piperidin-4-yl)-7-(trifluoromethyl)-1,3-dihydro-2H-benzo[d]imidazol-2-one] was 95.64%; that for `O=C(Cc1ccc2ncc(C(F)(F)F)cc2c1)N1CCC(n2c(=O)[nH]c3cccc(C(F)(F)F)c32)CC1` [GEN1-312] was 55.50%.

The record behind these values is patent US20240391940A1, “FUSED RING-CONTAINING COMPOUND, APPLICATION THEREOF, AND COMPOSITION CONTAINING SAME” (GenEros Biopharma Ltd., priority 2020, published 2024).
